{"source": "patent US8226943B2", "about": "“Antibodies to notch receptors” (OncoMed Pharmaceuticals, Inc., priority 2008, dated 2012)", "key": {"[1]": {"test_system": "hJAG2-induced Notch2 signaling", "experiment": "Luciferase reporter assay, hJAG2-induced Notch2 signaling in Hela cells", "assay_type": "cell-based, human", "details": "40 μg/ml", "protocol": "(§1) Luciferase reporter assays were used to assay the 59R1 antibody for its ability to block hDLL4-, hJAG1-, and hJAG2-induced Notch2 signaling.\n(§2) Hela cells that stably overexpress human Notch2 were transiently transfected with firefly luciferase with a synthetic 8×CBS promoter, pSPORT6 MAML-1, and Renilla luciferase-CMV as a transfection control. Cells were incubated with either 200 ng of immobilized hJAG1 (R&D systems) or hJAG2 (R&D systems) for 16 hours and then assayed using Dual-Glo (Promega) according to the manufacturer's instructions. 59R1 IgG2 antibody was at a concentration of 40 μg/ml. The gamma secretase inhibitor (GSI) dibenzazepine (DBZ) was used as a control at 1 μM."}, "human Notch3": {"target": "human Notch3 (Homo sapiens, UniProt Q9UM47)", "sequence (Q9UM47 40-2321)": "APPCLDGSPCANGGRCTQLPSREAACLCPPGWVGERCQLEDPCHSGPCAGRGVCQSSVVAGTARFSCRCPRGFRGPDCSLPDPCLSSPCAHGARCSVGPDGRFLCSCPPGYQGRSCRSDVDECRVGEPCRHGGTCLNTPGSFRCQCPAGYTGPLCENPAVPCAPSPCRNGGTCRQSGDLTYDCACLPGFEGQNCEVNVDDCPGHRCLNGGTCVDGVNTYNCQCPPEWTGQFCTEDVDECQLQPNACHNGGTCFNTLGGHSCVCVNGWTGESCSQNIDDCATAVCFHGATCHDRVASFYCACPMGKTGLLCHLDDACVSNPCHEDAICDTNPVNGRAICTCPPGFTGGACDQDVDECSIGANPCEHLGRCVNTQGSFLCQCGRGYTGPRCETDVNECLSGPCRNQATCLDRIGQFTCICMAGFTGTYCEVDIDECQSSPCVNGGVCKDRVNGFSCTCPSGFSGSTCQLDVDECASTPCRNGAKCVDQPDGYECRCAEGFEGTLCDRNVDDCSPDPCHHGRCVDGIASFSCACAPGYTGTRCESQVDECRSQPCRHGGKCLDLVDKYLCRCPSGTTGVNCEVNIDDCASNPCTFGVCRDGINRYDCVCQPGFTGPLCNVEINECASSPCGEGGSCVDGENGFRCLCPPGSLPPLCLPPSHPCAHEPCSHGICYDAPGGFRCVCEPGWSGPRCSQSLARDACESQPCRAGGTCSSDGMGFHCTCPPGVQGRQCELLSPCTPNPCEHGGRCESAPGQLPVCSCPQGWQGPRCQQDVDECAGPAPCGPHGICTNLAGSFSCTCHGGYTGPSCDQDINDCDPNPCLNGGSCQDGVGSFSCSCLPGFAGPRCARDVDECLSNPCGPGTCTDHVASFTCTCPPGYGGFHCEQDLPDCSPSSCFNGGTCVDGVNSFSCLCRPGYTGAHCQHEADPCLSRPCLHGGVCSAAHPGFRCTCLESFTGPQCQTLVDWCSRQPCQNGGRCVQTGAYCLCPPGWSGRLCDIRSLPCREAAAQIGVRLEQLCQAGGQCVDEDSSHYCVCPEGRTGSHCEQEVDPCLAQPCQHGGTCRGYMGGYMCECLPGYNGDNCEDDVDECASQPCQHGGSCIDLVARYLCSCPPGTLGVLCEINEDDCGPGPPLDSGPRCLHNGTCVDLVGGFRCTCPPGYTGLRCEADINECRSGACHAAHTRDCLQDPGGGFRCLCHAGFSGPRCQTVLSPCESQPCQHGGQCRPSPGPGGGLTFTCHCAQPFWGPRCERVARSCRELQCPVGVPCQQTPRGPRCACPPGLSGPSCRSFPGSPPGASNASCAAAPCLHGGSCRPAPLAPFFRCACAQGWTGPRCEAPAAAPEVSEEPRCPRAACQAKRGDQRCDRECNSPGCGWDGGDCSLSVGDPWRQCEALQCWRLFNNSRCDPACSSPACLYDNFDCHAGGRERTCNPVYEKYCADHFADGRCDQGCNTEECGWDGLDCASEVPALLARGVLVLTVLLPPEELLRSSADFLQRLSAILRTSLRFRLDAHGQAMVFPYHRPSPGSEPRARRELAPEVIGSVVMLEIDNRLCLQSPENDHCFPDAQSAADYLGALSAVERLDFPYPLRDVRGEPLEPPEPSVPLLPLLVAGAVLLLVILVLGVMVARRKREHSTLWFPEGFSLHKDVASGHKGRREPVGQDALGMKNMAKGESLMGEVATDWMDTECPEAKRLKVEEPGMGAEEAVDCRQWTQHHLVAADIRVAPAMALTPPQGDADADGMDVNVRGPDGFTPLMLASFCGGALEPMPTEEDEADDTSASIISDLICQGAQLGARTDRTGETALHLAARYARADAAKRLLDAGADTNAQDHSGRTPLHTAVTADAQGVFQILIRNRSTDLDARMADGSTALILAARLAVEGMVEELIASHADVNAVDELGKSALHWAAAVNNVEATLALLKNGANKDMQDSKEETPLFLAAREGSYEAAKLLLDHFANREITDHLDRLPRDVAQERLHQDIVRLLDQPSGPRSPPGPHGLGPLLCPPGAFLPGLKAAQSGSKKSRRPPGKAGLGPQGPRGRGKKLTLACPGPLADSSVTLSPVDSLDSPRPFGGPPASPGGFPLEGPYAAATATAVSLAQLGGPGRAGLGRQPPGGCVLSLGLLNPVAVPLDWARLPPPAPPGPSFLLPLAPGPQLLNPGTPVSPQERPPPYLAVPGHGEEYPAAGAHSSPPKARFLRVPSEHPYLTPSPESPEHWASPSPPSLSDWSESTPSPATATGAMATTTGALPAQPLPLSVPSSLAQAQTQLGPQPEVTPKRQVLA", "experiment": "FACS binding to transiently transfected HEK-293 cells, human Notch3", "parameters": "expressed in transfected cells", "protocol": "The ability of the 59R1 IgG2 antibody to cross-react with other Notch receptors was determined by FACS assay using HEK-293 cells transiently transfected with the human Notch1, Notch2, Notch3 or Notch4 expression plasmid and green fluorescent protein (GFP) as a transfection control. GFP positive cells indicated expression of the transgene. The 59R1 IgG2 was added to the cells at 2 μg/ml and detected by PE-conjugated goat anti-human Fc gamma specific (Jackson Immunochemicals). All Notch constructs were full length."}, "PE13 breast tumors": {"test_system": "PE13 breast tumors", "experiment": "Microarray analysis of PE13 breast tumors treated with taxol or 59R1 plus taxol", "assay_type": "in vivo, mice", "details": "PE13, 59R1 Taxol vs. Taxol", "protocol": "In addition to investigating the effects of 59R1 in tumors and the effect on CSC frequency, gene changes were studied following 59R1 treatment in combination with taxol. The experiment was performed in PE13 breast tumors where a decrease in CSC frequency after treatment with 59R1 alone or 59R1 plus taxol treatment had previously been observed (and described herein). Microarray analysis was performed on tumors from the same experiment where limiting dilution analyses of PE13 were carried out for CSC quantification (FIG. 19). Animals bearing PE13 breast tumors were treated three weeks with 59R1 plus taxol, control and taxol prior to harvesting for microarray analysis. Mean differential expression values for taxol vs. control and 59R1 plus taxol vs. taxol treated animals (3 animals per group) were calculated."}, "[2]": {"test_system": "colon tumor xenograft line OMP-C8", "experiment": "OMP-C8 colon tumor xenograft growth", "assay_type": "in vivo, NOD/SCID mice", "details": "established tumors, 15 mg/kg once a week", "protocol": "(§3) The 59R1 IgG2 antibody was also tested in vivo in the breast tumor xenograft lines OMP-B34, OMP-B39, OMP-B44, PE13, and UM-T1, the pancreas tumor xenograft line OMP-PN8, and the colon tumor xenograft line OMP-C8. These tumor xenograft lines were established by adhering to procedures described in Al-Hajj et al., 2003, Proc. Natl. Acad. Sci. USA, 100:3983-3988. Female NOD/SCID immuno-compromised mice 7-10 weeks old were used for the establishment of the breast tumor xenografts and male NOD/SCID mice were used for the OMP-Pn8 and OMP-C8 tumor-models (Harlan, Indianapolis, Ind.). The 59R1 IgG2 antibody was also tested in vivo in a Colo-205 colon tumor xenograft model. Female immunodeficient bg/nu XID mice on a Swiss CD-1 background were used for the Colo-205 xenograft tumor model. In case of the breast cancer models, slow-releasing estrogen pellets (0.36 mg) had to be implanted. Mice were subcutaneously injected on the right flank with 50,000 (OMP-B34, OMP-B39, OMP-B44, PE13, and UM-T1) or 1×10^7 (Colo-205) viable cells, respectively, in a mixture of PBS (without magnesium or calcium) and Matrigel at a 1:1 ratio. […] Antibodies were administered weekly and tumors measured twice weekly. […] Tumor volume was calculated as described Al-Hajj et al. (2003). Data are expressed as the mean and the mean±S.E.M. Group means were compared using Student's two-tailed, unpaired t-test. […]"}, "[3]": {"test_system": "breast tumor xenograft line OMP-B39", "experiment": "OMP-B39 breast tumor xenograft growth", "assay_type": "in vivo, NOD/SCID mice", "details": "established tumors, 15 mg/kg once a week", "protocol": "as §3"}, "[4]": {"test_system": "hJAG1-induced Notch2 signaling", "experiment": "Luciferase reporter assay, hJAG1-induced Notch2 signaling in Hela cells", "assay_type": "cell-based, human", "details": "40 μg/ml", "protocol": "as §1, §2"}, "[5]": {"test_system": "breast tumor xenograft line OMP-B44", "experiment": "OMP-B44 breast tumor xenograft growth", "assay_type": "in vivo, NOD/SCID mice", "details": "established tumors, 15 mg/kg once a week", "protocol": "as §3"}, "[6]": {"test_system": "breast tumor xenograft line UM-T1", "experiment": "UM-T1 breast tumor xenograft growth", "assay_type": "in vivo, NOD/SCID mice", "protocol": "as §3"}, "[7]": {"test_system": "breast tumor xenograft line OMP-B34", "experiment": "OMP-B34 breast tumor xenograft growth", "assay_type": "in vivo, NOD/SCID mice", "details": "established tumors, 15 mg/kg once a week", "protocol": "as §3"}}}
{"substance": "59R1: human IgG2 antibody binding Notch2 and Notch3; heavy and light chain SEQ ID NO:16 and 18; ATCC PTA-9547", "values": [{"measurement": "hJAG2-induced Notch2 reporter activity", "setting": "[1]", "value": "inhibit"}, {"measurement": "binding to full-length human Notch3 (FACS)", "setting": "human Notch3", "value": "specifically binds"}, {"measurement": "Fold BMPR1B", "setting": "PE13 breast tumors", "value": "−4.3"}, {"measurement": "Fold BNIP3", "setting": "PE13 breast tumors", "value": 1.8}, {"measurement": "Fold EGLN3", "setting": "PE13 breast tumors", "value": 11.9}, {"measurement": "Fold HSPB6", "setting": "PE13 breast tumors", "value": "−1.8"}, {"measurement": "Fold ITGAM", "setting": "PE13 breast tumors", "value": "−2.5"}, {"measurement": "Fold LHX8", "setting": "PE13 breast tumors", "value": "−4.4"}, {"measurement": "Fold NDRG1", "setting": "PE13 breast tumors", "value": 6.4}, {"measurement": "Fold RARRES1", "setting": "PE13 breast tumors", "value": "−2.2"}, {"measurement": "Fold RARRES3", "setting": "PE13 breast tumors", "value": "−1.7"}, {"measurement": "Fold RBP2", "setting": "PE13 breast tumors", "value": "−2.2"}, {"measurement": "Fold XAF1", "setting": "PE13 breast tumors", "value": "−1.5"}, {"measurement": "C8 tumor growth relative to LZ1 control antibody", "setting": "[2]", "value": "inhibit tumor growth"}, {"measurement": "B39 breast cancer growth relative to control antibody", "setting": "[3]", "value": "inhibit breast cancer growth"}, {"measurement": "hJAG1-induced Notch2 reporter activity", "setting": "[4]", "value": "inhibit"}, {"measurement": "B44 breast cancer growth relative to control antibody", "setting": "[5]", "value": "inhibit breast cancer growth"}, {"measurement": "T1 breast tumor growth", "setting": "[6]; in the absence of estrogen treatment", "value": "ineffective"}, {"measurement": "T1 breast tumor growth", "setting": "[6]; in the presence of estrogen, 15 mg/kg once a week", "value": "effective at inhibiting tumor growth"}, {"measurement": "B34 breast cancer growth relative to control antibody", "setting": "[7]", "value": "inhibit breast cancer growth"}]}
